From patent US20260347372A1, “SMALL MOLECULE INHIBITORS OF KRAS G12D MUTANT” (MERCK SHARP & DOHME LLC, priority 2023, published 2026)

Tests used:
KRAS G12C = KRAS G12C (Homo sapiens, UniProt P01116, C118S/C51S/C80L/G12C); test: SOS-catalyzed nucleotide exchange assay, KRAS G12C (Procedure A); format: biochemical; conditions: GNE
Text: (§1) Procedure for SOS-Catalyzed Nucleotide Exchange Assay for KRAS-WT, G12C/D/V, G13D, HRAS, and NRAS (Procedure A)
(§2) Recombinant KRAS-G12C protein used in this assay has an additional triple mutation (C51S/C80L/C118S). Whereas KRAS-WT, G12D/V, G13D, HRAS and NRAS are in context of their WT protein sequence background. Specifically, the SOS-catalyzed nucleotide exchange assay utilizes a preformed TR-FRET complex containing a specific biotinylated RAS protein (KRAS-WT, G12C/V/D, G13D, HRAS, NRAS; described above) with Bodipy-GDP, and Terbium-streptavidin. Compounds are preincubated with this complex for 60 minutes. Subsequently, recombinant human SOS protein and unlabeled GTP are added to initiate the exchange reaction. Small molecule inhibitors stabilize the Bodipy-GDP complex whereas the untreated protein rapidly exchanges Bodipy-GDP for unlabeled GTP resulting in reduced TR-FRET signal.
(§3) To assemble the preformed TR-FRET complexes, each biotinylated RAS protein is diluted to 2 μM in an EDTA Buffer (20 mM HEPES pH 7.5, 50 mM sodium chloride, 10 mM EDTA, and 0.01% Tween) and incubated at room temperature for one hour. This mixture is then further diluted to 90 nM in an Assay Buffer (20 mM HEPES pH 7.5, 150 mM sodium chloride, 10 mM magnesium chloride, and 0.005% Tween) containing 15 nM of Terbium-Streptavidin (Invitrogen, catalog #PV3577) and 900 nM of Bodipy-GDP (Invitrogen, catalog #G22360) and incubated at room temperature for six hours. It should be noted that this preformed TR-FRET complex for each of the RAS protein were made ahead of time, aliquoted and stored at −80° C. until the day of the experiment.
(§4) Each test compound (10 mM stock in DMSO) is diluted in DMSO to make a final-10-point, 3-fold dilution and is acoustically dispensed into a 384-well assay plate (Corning, catalog #3820) using an Echo 550 (Labcyte). Each well of the assay plate receives 3 μL of a specific 3×RAS preformed TR-FRET complex and 3 μL of Assay Buffer and is incubated at room temperature for 60 minutes (preincubation time). Each well then receives 3 μL of 3× recombinant human SOS protein and GTP (Sigma, G8877) in Assay Buffer and is incubated at room temperature for 30 minutes (G13D), 60 minutes (KRAS WT/G12C/D, H/NRAS) or 90 minutes for G12V. The final reaction in each well of 9 μL consists of 3 mM GTP, specific Ras and SOS proteins in the following concentrations: KRAS-G12C/SOS=3 nM/40 nM, KRAS-WT and G12D/SOS=1 nM/40 nM, KRAS-G12V/SOS=1.25 nM/160 nM, KRAS-G13D/SOS=1.25 nM/0 nM, HRAS and NRAS=1.25 nM/40 nM.
(§5) The time-resolved fluorescence resonance energy transfer (TR-FRET) signal is measured on an Envision (PerkinElmer) plate reader: Excitation filter=340 nm; emission1=495 nm; emission2=520 nm; dichroic mirror=D400/D505; delay time=[…]. The signal of each well is determined as the ratio of the emission at 520 nm to that at 495 nm. Percent effect of each well is determined after normalization to control wells containing DMSO (no effect) or a saturating concentration of inhibitor (max effect). The apparent effect as a function of compound concentration is fit to a four-parameter logistic equation.
(§6) For Example No. 14, nucleotide exchange assays for KRAS G12D, WT, G12C, and G12V were performed according to Procedure B. All the other compounds were tested according to Procedure A.

HRAS = HRAS (Homo sapiens, UniProt P01112); test: SOS-catalyzed nucleotide exchange assay, HRAS (Procedure A); format: biochemical; conditions: GNE
Text: as §1, §2, §3, §4, §5, §6

AsPC-1 cells = target: T1, AsPC-1 cells (Homo sapiens, UniProt P01116, G12D); test: Cellular phospho-ERK assay, AsPC-1 cells (KRAS G12D); format: cell-based; conditions: 2 hours, read-out: AsPC1 pERK IC50
T1 construct: p-ERK/total ERK AlphaSureFire read-out
Method in brief: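 Compound was titrated 10-point in 3-fold steps (top 30 μM) on KRAS G12D homozygous pancreatic lines PANC08.13 and AsPC-1 for 2 h at 37 °C. The p-ERK/total ERK ratio was measured by multiplex AlphaLISA SureFire and fitted with a 4-parameter logistic model to give IC50.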

KRAS WT = KRAS WT (Homo sapiens, UniProt P01116); test: SOS-catalyzed nucleotide exchange assay, KRAS WT (Procedure A); format: biochemical; conditions: GNE
Method in brief: (§7)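 60 min cpd preinc. w/ RAS–Bodipy-GDP–Tb-SA complex; + hSOS/GTP (3 mM final), RT. G12C 3 nM RAS/40 nM SOS; WT, G12D 1 nM/40 nM; 60 min rxn. G13D 1.25 nM, no SOS, 30 min rxn. HEPES pH 7.5, 10 mM MgCl2. Ratio 520/495, norm. to DMSO/max-inhibitor ctrls.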

KRAS G12D = KRAS G12D (Homo sapiens, UniProt P01116, G12D); test: SOS-catalyzed nucleotide exchange assay, KRAS G12D (Procedure A); format: biochemical; conditions: guanine nucleotide exchange (GNE)
Method in brief: as §7

NRAS = NRAS (Homo sapiens, UniProt P01111); test: SOS-catalyzed nucleotide exchange assay, NRAS (Procedure A); format: biochemical; conditions: GNE
Text: as §1, §2, §3, §4, §5, §6

KRAS G13D = KRAS G13D (Homo sapiens, UniProt P01116, G13D); test: SOS-catalyzed nucleotide exchange assay, KRAS G13D (Procedure A); format: biochemical; conditions: GNE
Text: as §1, §2, §3, §4, §5, §6

KRAS G12V = KRAS G12V (Homo sapiens, UniProt P01116, G12V); test: SOS-catalyzed nucleotide exchange assay, KRAS G12V (Procedure A); format: biochemical; conditions: GNE
Method in brief: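 Biotinylated KRAS G12V was loaded with Bodipy-GDP alongside Terbium-streptavidin to form a TR-FRET complex, which was preincubated with compounds for 60 minutes in 384-well plates. Human SOS protein and unlabeled GTP were then added for 90 minutes, giving final concentrations of 1.25 nM KRAS-G12V, 160 nM SOS and 3 mM GTP. The 520/495 nm emission ratio was read on an Envision.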

KRAS G12V, sequence (P01116 with tags, fused parts or gaps isoform P01116-2 G12V): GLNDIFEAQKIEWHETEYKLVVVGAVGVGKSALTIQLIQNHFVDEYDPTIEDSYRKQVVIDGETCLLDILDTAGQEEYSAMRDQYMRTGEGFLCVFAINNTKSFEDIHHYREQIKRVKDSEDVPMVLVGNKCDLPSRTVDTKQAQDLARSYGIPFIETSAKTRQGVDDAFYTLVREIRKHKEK
NRAS, sequence (P01111 with tags, fused parts or gaps): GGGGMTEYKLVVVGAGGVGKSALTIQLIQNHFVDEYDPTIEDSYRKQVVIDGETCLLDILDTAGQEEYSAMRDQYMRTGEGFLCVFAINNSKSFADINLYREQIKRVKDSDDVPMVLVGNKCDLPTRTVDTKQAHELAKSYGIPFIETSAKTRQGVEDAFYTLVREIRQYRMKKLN
KRAS G12D, sequence (P01116 with tags, fused parts or gaps isoform P01116-2 G12D): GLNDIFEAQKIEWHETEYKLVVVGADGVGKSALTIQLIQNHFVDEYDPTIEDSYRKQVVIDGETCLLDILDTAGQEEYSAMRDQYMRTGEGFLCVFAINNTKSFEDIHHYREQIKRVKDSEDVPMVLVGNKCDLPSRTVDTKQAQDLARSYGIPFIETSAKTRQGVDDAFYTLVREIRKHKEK
T1 sequence (P01116 1-188 isoform P01116-2 G12D): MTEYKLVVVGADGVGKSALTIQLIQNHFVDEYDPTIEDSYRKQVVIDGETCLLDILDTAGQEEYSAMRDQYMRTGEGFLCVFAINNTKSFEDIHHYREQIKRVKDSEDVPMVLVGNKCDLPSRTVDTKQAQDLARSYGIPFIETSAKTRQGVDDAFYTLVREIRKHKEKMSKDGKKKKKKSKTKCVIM
KRAS WT, sequence (P01116 with tags, fused parts or gaps isoform P01116-2): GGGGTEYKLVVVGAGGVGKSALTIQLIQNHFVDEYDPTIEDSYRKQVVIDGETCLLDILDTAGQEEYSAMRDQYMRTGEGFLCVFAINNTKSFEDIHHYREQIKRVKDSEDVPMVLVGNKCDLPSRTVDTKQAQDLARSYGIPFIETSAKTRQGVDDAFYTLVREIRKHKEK
KRAS G13D, sequence (P01116 with tags, fused parts or gaps isoform P01116-2 G13D): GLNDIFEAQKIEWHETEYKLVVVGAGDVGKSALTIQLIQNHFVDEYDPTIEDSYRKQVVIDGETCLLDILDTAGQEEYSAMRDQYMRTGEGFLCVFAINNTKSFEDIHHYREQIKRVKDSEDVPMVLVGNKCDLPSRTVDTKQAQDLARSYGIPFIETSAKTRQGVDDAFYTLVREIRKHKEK
KRAS G12C, sequence (P01116 with tags, fused parts or gaps isoform P01116-2 G12C/C51S/C80L/C118S): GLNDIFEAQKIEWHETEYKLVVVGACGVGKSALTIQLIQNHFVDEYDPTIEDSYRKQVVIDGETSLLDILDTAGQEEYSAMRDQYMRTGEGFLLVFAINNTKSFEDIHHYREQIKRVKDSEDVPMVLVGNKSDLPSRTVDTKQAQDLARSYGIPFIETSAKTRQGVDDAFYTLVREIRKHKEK
HRAS, sequence (P01112 with tags, fused parts or gaps): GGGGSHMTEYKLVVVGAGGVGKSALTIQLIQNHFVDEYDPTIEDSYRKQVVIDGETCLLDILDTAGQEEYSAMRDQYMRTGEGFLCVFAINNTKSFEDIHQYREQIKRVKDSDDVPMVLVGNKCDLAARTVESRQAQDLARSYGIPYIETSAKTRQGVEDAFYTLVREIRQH

Compound | IC50 (KRAS G12C) | IC50 (HRAS) | IC50 (AsPC-1 cells) | IC50 (KRAS WT) | IC50 (KRAS G12D) | IC50 (NRAS) | IC50 (KRAS G13D) | IC50 (KRAS G12V)
C#Cc1csc2cc3[nH]ncc3c(-c3nccc4c3sc3nc(OC[C@@]56CCCN5C[C@H](F)C6)nc(N5C[C@H]6CC[C@@H](C5)N6)c34)c12 [Ex-54, 4-((1R,5S)-3,8-diazabicyclo[3.2.1]octan-3-yl)-8-(5-ethynyl-1H-thieno[3,2-f]indazol-4-yl)-2-(((2R,7aS)-2-fluorotetrahydro-1H-pyrrolizin-7a(5H)-yl)methoxy)pyrido[4′,3′:4,5]thieno[2,3-d]pyrimidine] | 0.0227 µM | > 11.1 µM | 0.0314 µM | 0.0807 µM | 0.00192 µM | > 11.1 µM | 0.0148 µM | 0.0627 µM
Cc1cc2[nH]ncc2c(-c2nccc3c2sc2nc(OCC4CCS(=O)(=O)CC4)nc(N4C[C@H]5CC[C@@H](C4)N5)c23)c1C(F)(F)F [Ex-36, 4-(((4-((1R,5S)-3,8-diazabicyclo[3.2.1]octan-3-yl)-8-(6-methy1-5-(trifluoromethyl)-1H-indazol-4-yl)pyrido[4′,3′:4,5]thieno[2,3-d]pyrimidin-2-yl)oxy)methyl)tetrahydro-2H-thiopyran 1,1-dioxide] | > 11.1 µM | > 11.1 µM | 28.4 µM | > 11.1 µM | 4.12 µM | > 11.1 µM | > 11.1 µM | > 11.1 µM
Cc1cc2[nH]ncc2c(-c2nccc3c2sc2nc(OCC4(C)CS(=O)(=O)C4)nc(N4C[C@H]5CC[C@@H](C4)N5)c23)c1C(F)(F)F [Ex-39, 3-(((4-((1R,5S)-3,8-diazabicyclo[3.2.1]octan-3-yl)-8-(6-methyl-5-(trifluoromethyl)-1H-indazol-4-yl)pyrido[4′,3′:4,5]thieno[2,3-d]pyrimidin-2-yl)oxy)methyl)-3-methylthietane 1,1-dioxide] | > 11.1 µM | > 11.1 µM | 12.8 µM | > 11.1 µM | 2.42 µM | > 11.1 µM | > 11.1 µM | > 11.1 µM
Cc1cc2[nH]ncc2c(-c2nccc3c2sc2nc(OC[C@@]45CCCN4C[C@H](F)C5)nc(NCC4(N(C)C)CCC4)c23)c1C(F)(F)F [Ex-74, N-((1-(dimethylamino)cyclobutyl)methyl)-2-(((2R,7aS)-2-fluorotetrahydro-1H-pyrrolizin-7a(5H)-yl)methoxy)-8-(6-methyl-5-(trifluoromethyl)-1H-indazol-4-yl)pyrido[4′,3′:4,5]thieno[2,3-d]pyrimidin-4-amine] | > 11.1 µM | > 11.1 µM | 12.1 µM | > 11.1 µM | 1.3 µM | > 11.1 µM | 2.88 µM | > 11.1 µM
Cc1cc2[nH]ncc2c(-c2nccc3c2sc2nc(OCC4(C)CNC(=O)C4)nc(N4C[C@H]5CC[C@@H](C4)N5)c23)c1C(F)(F)F (stereo partly drawn) [Ex-37, 4-(((4-((1R,5S)-3,8-diazabicyclo[3.2.1]octan-3-yl)-8-(6-methy1-5-(trifluoromethyl)-1H-indazol-4-yl)pyrido[4′,3′:4,5]thieno[2,3-d]pyrimidin-2-yl)oxy)methyl)-4-methylpyrrolidin-2-one] | > 11.1 µM | > 11.1 µM | > 30 µM | > 11.1 µM | 1.28 µM | > 11.1 µM | > 11.1 µM | > 11.1 µM
Cc1cc2[nH]ncc2c(-c2nccc3c2sc2nc(OC[C@@]45CCCN4C[C@H](F)C5)nc(N4C5CNCC4C5)c23)c1C(F)(F)F [Ex-68, 4-(3,6-diazabicyclo[3.1.1]heptan-6-yl)-2-(((2R,7aS)-2-fluorotetrahydro-1H-pyrrolizin-7a(5H)-yl)methoxy)-8-(6-methyl-5-(trifluoromethyl)-1H-indazol-4-yl)pyrido[4′,3′:4,5]thieno[2,3-d]pyrimidine] | 1.85 µM | > 11.1 µM | 11.1 µM | 6.6 µM | 0.267 µM | > 11.1 µM | 3.05 µM | 1.36 µM

The next lines start with the values.

IC50 (KRAS G12C) | IC50 (HRAS) | IC50 (AsPC-1 cells) | IC50 (KRAS WT) | IC50 (KRAS G12D) | IC50 (NRAS) | IC50 (KRAS G13D) | IC50 (KRAS G12V) | Compound
> 11.1 µM | > 11.1 µM | > 30 µM | > 11.1 µM | 6.7 µM | > 11.1 µM | > 11.1 µM | > 11.1 µM | Cc1cc2[nH]ncc2c(-c2nccc3c2sc2nc(OCC4(C#N)CCCO4)nc(N4C[C@H]5CC[C@@H](C4)N5)c23)c1C(F)(F)F (stereo partly drawn) [Ex-34, 2-(((4-((1R,5S)-3,8-diazabicyclo[3.2.1]octan-3-yl)-8-(6-methyl-5-(trifluoromethyl)-1H-indazol-4-yl)pyrido[4′,3′:4,5]thieno[2,3-d]pyrimidin-2-yl)oxy)methyl)tetrahydrofuran-2-carbonitrile]
> 11.1 µM | > 11.1 µM | > 30 µM | > 11.1 µM | 3.79 µM | > 11.1 µM | 3.55 µM | > 11.1 µM | Cc1cc2[nH]ncc2c(-c2nccc3c2sc2nc(OCC4(C#N)CCOCC4)nc(N4C[C@H]5CC[C@@H](C4)N5)c23)c1C(F)(F)F [Ex-38, 4-(((4-((1R,5S)-3,8-diazabicyclo[3.2.1]octan-3-yl)-8-(6-methyl-5-(trifluoromethyl)-1H-indazol-4-yl)pyrido[4′,3′:4,5]thieno[2,3-d]pyrimidin-2-yl)oxy)methyl)tetrahydro-2H-pyran-4-carbonitrile]
> 11.1 µM | > 11.1 µM | 20.2 µM | > 11.1 µM | 7.97 µM | > 11.1 µM | > 11.1 µM | > 11.1 µM | Cc1cc2[nH]ncc2c(-c2nccc3c2sc2nc(OCC4(S(C)(=O)=O)CC4)nc(N4C[C@H]5CC[C@@H](C4)N5)c23)c1C(F)(F)F [Ex-33, 4-((1R,5S)-3,8-diazabicyclo[3.2.1]octan-3-yl)-8-(6-methyl-5-(trifluoromethyl)-1H-indazol-4-yl)-2-((1-(methylsulfonyl)cyclopropyl)meth-oxy)pyrido[4′,3′:4,5]thieno[2,3-d]pyrimidine]
